Experimental data published in PubChem BioAssay (NCI).
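The compound was tested at five concentrations on cells cultured in 96-well plates, with a 48-hour exposure period. TGI: total growth inhibition.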

Key:
Experiment in all cases: NCI tumour cell line growth inhibition, 48 h
HCC-2998 colon = test system: HCC-2998 colon
SK-MEL-5 melanoma = test system: SK-MEL-5 melanoma
SNB-75 CNS = test system: SNB-75 CNS
HCT-15 colon = test system: HCT-15 colon
CCRF-CEM leukemia = test system: CCRF-CEM leukemia
HOP-62 NSCLC = test system: HOP-62 NSCLC
UACC-257 melanoma = test system: UACC-257 melanoma
TK-10 renal = test system: TK-10 renal
OVCAR-8 ovarian = test system: OVCAR-8 ovarian
IGROV1 ovarian = test system: IGROV1 ovarian

| Compound | TGI (HCC-2998 colon) [µM] | TGI (SK-MEL-5 melanoma) [µM] | TGI (SNB-75 CNS) [µM] | TGI (HCT-15 colon) [µM] | TGI (CCRF-CEM leukemia) [µM] | TGI (HOP-62 NSCLC) [µM] | TGI (UACC-257 melanoma) [µM] | TGI (TK-10 renal) [µM] | TGI (OVCAR-8 ovarian) [µM] | TGI (IGROV1 ovarian) [µM] |
| --- | --- | --- | --- | --- | --- | --- | --- | --- | --- | --- |
| Cc1ccc(NCC2CC/C(=C\c3ccc(Cl)cc3)C2=O)cc1 (stereo not given) | > 69.8 | 20.4 | > 100 | 9.41 | 19.3 | > 82.6 | 39.2 | 40.6 | 36.1 | 38 |
| O=C1c2cc3c(cc2CC12Cc1cc4c(cc1C2=O)CCCC4)CCCC3 | > 100 | > 100 | 53.4 | > 100 | > 100 | 57.1 | 82.1 | 75.8 | > 100 | > 100 |
| O=C(O)C1CC2C3CCC2C1C3=O (stereo not given) | > 100 | > 100 | > 100 | > 100 | > 100 | > 100 | > 100 | > 100 | > 100 | > 100 |
| NC(=S)NNC(=O)/C(=C/c1ccc(/C=C(\NC(=O)c2ccccc2)C(=O)NNC(N)=S)cc1)NC(=O)c1ccccc1 | > 100 | > 100 | 85 | > 100 | > 100 | > 100 | > 100 | > 100 | > 100 | > 100 |
| COc1ccc(OC)c2sc(N3C(=O)/C(=C/Cc4ccco4)N=C3c3ccccc3)nc12 | > 100 | 80.5 | 57.8 | > 100 | 26.9 | > 100 | > 100 | > 100 | > 100 | > 100 |
| CCOC(=O)CCC(NC(=O)Cc1ccc(Nc2nc3ccccc3nc2-c2ccccc2)cc1)C(=O)OCC (stereo not given) | > 100 | > 100 | 38.3 | > 100 | > 100 | > 100 | > 100 | 58.5 | > 100 | > 100 |
| COc1cc(/C=C/C(=O)c2sc(-n3nc(-c4ccccc4)cc3-c3ccccc3)nc2C)ccc1O | > 100 | > 100 | > 100 | > 100 | > 100 | > 100 | > 100 | > 100 | > 100 | > 100 |
| Fc1c(F)c(C(F)(F)F)c(F)c(F)c1N/N=C\c1c[nH]c2ccccc12 | 4.19 | 4.04 | 6.23 | 12.8 | 4.73 | 4.16 | 14.3 | 15.6 | 21.8 | 10.4 |
| Fc1cc(C2=C[C@H](c3ccc(Cl)cc3)NC(=S)N2)c(Cl)cc1Cl | 79.8 | 36.1 | > 100 | > 100 | > 100 | > 100 | > 100 | > 100 | > 100 | > 100 |
| O=S(=O)([O-])[O-].[Fe+2].c1ccc(/C(=N\Nc2ccccn2)c2ccccn2)cc1 | 16.2 | 4.43 | 14.7 | 11.3 | 9.71 | 12 | 4.39 | 7.73 | 10.8 | 5.46 |
| NC(=O)C(Nc1c(Cl)cccc1Cl)c1cc2cc(Br)ccc2nc1Cl (stereo not given) | > 100 | > 100 | > 100 | > 100 | > 100 | > 100 | > 100 | 96.3 | > 100 | > 100 |
| Cc1c2ccncc2cc2c1sc1ccncc12 | 15.4 | 5.78 | 15.4 | 14.4 | 5.32 | 8.37 | 11 | 36 | 23.7 | 39.3 |
| CCOC(=O)C(c1c[nH]c2ccccc12)(c1c[nH]c2ccccc12)c1c[nH]c2ccccc12 | 45.3 | > 100 | 88.5 | > 100 | 58.9 | > 100 | > 100 | > 100 | > 100 | > 100 |
| NS(=O)(=O)c1cc2c(cc1Cl)NC(C(=O)c1cc(=O)c3ccc(O)cc3o1)=NS2(=O)=O | > 100 | > 100 | > 100 | > 100 | > 100 | > 100 | > 100 | > 100 | > 100 | > 100 |
